Experimental data published in patent US20220323406A1, “METHODS AND COMPOSITIONS FOR DIFFERENTIATING STEM CELLS” (Massachusetts Institute of Technology, priority 2019, published 2022).
“Also recorded” adds a separate entry of the source.

Experiments:
[1] = test system: lysozyme (LYZ) in intestinal organoids; experiment: Western blotting of lysozyme in 3D-cultured intestinal organoids; assay type: cell-based, mouse; details: ENR+CV, ENR+CD or ENR, 6 days
Source text: Western blotting. ISC-enriched organoids cultured in 3D Matrigel with ENRCV media were passaged to 24-well plate in 3D Matrigel with ENRCV. At day zero, media were replaced to ENR or ENRCD with or without indicated compounds, and media were replaced every other day. At day six, cells were harvested from Matrigel by mechanical disruption and suspended in basal media. Cell pellets were lysed with Pierce® IP lysis buffer (ThermoFisher, 87787) containing Halt™ Protease Inhibitor Cocktail, EDTA-Free (ThermoFisher, 87785) after 3-minute centrifuge at 300×g at 4° C. Cell extracts were resolved by NuPAGE® SDS-PAGE Gel system (ThermoFisher) and electroblotted onto polyvinylidene difluoride membranes using Criterion™ Blotter (Biorad). The membranes were blocked with 2% Blotting-Grade Blocker (Biorad, 1706404) in TBS-T (50 mM Tris-HCl, 150 mM NaCl, and 0.1% Tween 20, pH 8.0) and then probed with appropriate antibodies. Detection was performed using ECL Select™ Western Blotting Detection Reagent (Amersham, 45-000-999) and ImageQuant LAS4000 (GE Healthcare).
Western blotting. Organoid-containing gel was homogenized in basal medium and centrifuged at 300 rcf for 3 min. Organoid pellet was lysed with ice-cold Pierce IP Lysis Buffer (Thermo Fisher Scientific, #87787) containing Halt Protease Inhibitor Cocktail, EDTA-Free (Thermo Fisher Scientific, #87785) and incubated on ice for 20 min. The lysate was centrifuged at 17,000 rcf for 10 min, and the supernatant was combined with NuPAGE LDS Sample Buffer (Thermo Fisher Scientific, NP0007). Protein concentration was determined by Pierce 660 nm Protein Assay (Thermo Fisher Scientific, #22660) and normalized to the lowest concentration among each sample set. […] Chemiluminescent signals were detected by LAS4000 (GE Healthcare) using Amersham ECL Select Western Blotting Detection Reagent (GE Healthcare, #45-000-999), and total protein signals were obtained by Odyssey Imaging System (LI-COR Biosciences) using REVERT Total Protein Stain Kit (LI-COR Biosciences, #926-11010).

intestinal organoids = experiment: Population RNA-sequencing of treated organoids; assay type: cell-based, mouse; details: ENR+CV, ENR+CD or ENR
Method: Population RNA-sequencing. Population RNA-seq was performed using a derivative of the Smart-Seq2 protocol for single cells. In brief, organoid media was aspirated and RLT+BME (Qiagen) was added to each well, and plate shaken for 30 minutes to fully lyse. Lysate was aliquoted into 4 identical fractions and stored at −80° C. until reverse transcription. RNA lysate was thawed and cleaned with a 2.2×SPRI ratio using Agencourt RNAClean XP beads (Beckman Coulter, A63987). RNA-seq was performed on a bulk population of sorted basal cells using Smart-Seq2 chemistry, starting with a 2.2×SPRI ratio cleanup. After oligo-dT priming, Maxima H Minus Reverse Transcriptase (ThermoFisher EP0753) was used to synthesize cDNA with an elongation step at 52° C. before PCR amplification (15 cycles for tissue, 18 cycles for sorted basal cells) using KAPA HiFi PCR Mastermix (Kapa Biosystems KK2602). Sequencing libraries were prepared using the Nextera XT DNA tagmentation kit (Illumina FC-131-1096) with 250 pg input for each sample. Libraries were pooled post-Nextera and cleaned using Agencourt AMPure SPRI beads with successive 0.7× and 0.8× ratio SPRIs and sequenced with an Illumina 75 Cycle NextSeq500/550v2 kit (Illumina FC-404-2005) with loading density at […], with paired end 35 cycle read structure. Samples were sequenced at an average read depth of 8.44 million reads per sample and a total of 96 samples.
Organoid samples were aligned to the Mm10 genome and transcriptome using STAR and RSEM. […] For module scoring with the in vivo Paneth and enteroendocrine cell-defining genes, Applicants used previously published gene sets and computed per sample module scores through the Seurat package.

[2] = test system: Paneth cells in ENR+CD organoids; experiment: Flow cytometry of 3D-cultured intestinal organoids, Paneth cells (lysozyme-positive, CD24-positive); assay type: cell-based, mouse; details: 160 nM KPT-8602 or 2 ng/mL Leptomycin B, ENR+CD 6 days
Source text: Flow cytometry analysis (3D culture). ISC-enriched organoids cultured in 3D Matrigel with ENRCV media were passaged to 24-well plate in 3D Matrigel with ENRCV. At day zero, media were replaced to ENRCD with or without indicated compounds, and media were replaced every other day. At day six, cells were washed with basal media, and then harvested from Matrigel by mechanical disruption in TrypLE Express (ThermoFisher, 12605010) to remove Matrigel and dissociate organoids to single cells. After vigorous pipetting and incubation at 37° C. for 20 min, dissociated organoids were strained through a 35 μm cell strainer into a tube (Falcon, 352235). […] Cell pellets were resuspended in FACS buffer (2% FBS in PBS), and then transferred to an ultra low-bind 96-well plate (Corning, 7007). Cells were stained with Zombie-violet viability dye (BioLegend, 423107) at 100× for viability staining and/or antibody staining solution. FITC-conjugated antibody for lysozyme (Dako, F0372) and APC-conjugated antibody for CD24 (BioLegend, 138505) were used at 100× dilution. Flow cytometry was performed using an LSR Fortessa (BD; Koch Institute Flow Cytometry Core at MIT). The data were analyzed using FlowJo v10 software.
The results of primary and secondary screening reflect a mixture of potential effects arising from small molecule treatment which may result in increases in total LYZ secretion. This includes contributions from enhanced Paneth cell differentiation, altered Paneth cell activity and changes in total cell number concurrent with differentiation. To better inform how the 6 compounds identified in the screen increased total secreted LYZ, and to isolate only those which enhance Paneth differentiation robustly, Applicants next utilized flow cytometry to measure the changes in Paneth cell representation within the treated organoids. […] Single live cells were selected by several gating strategies and Paneth cells were identified as lysozyme-high, CD24-mid, side scatter-high (SSC-high) (FIG. 27E). […] To evaluate whether the culture media supplements C and D may alter the effects of the 6 hits, Applicants also performed lysozyme assay in the canonical ENR culture condition in 3-D (because Paneth cells exist in an immature state within ENR, Applicants were unable to robustly quantify Paneth cell number via flow cytometry).
Flow cytometry. ISC-enriched organoids in 3D Matrigel culture were passaged to a 48-well plate and induced differentiation for 6 days by ENR+CD media containing DMSO or each drug indicated in the figures. DMSO- or drug-containing media were changed every other day. On day 6, cells were washed twice with basal media, then harvested from Matrigel by the mechanical disruption in TrypLE Express (Thermo, #12605010) to remove Matrigel and dissociate organoids to single cells. After vigorous pipetting and incubation at 37° C. for 15 min, the cell solution was diluted twice with basal media and centrifuged at 300 ref for 3 min. The cell pellet was resuspended in FACS buffer (PBS containing 2% FBS) and replaced into a 96-well Clear Round Bottom Ultra-Low Attachment Microplate (Corning, #7007). The cell solution was centrifuged again at 300 rcf for 3 min at 4° C. to pellet the cells. Cells were stained with Zombie-violet dye (BioLegend, #423113) at 100× for viability staining for 20 min at RT in the dark. After centrifugation for 3 min at 300 rcf, cells were fixed in fixation buffer (FACS buffer containing 1% formaldehyde (Thermo, #28906)) for 15 min on ice in the dark. Cells were centrifuged again for 3 min at 300 rcf and blocked with staining buffer (FACS buffer containing 0.5% Tween20 (Sigma, P2287)) for 15 min at RT in the dark. Pelleted cells by the centrifugation for 3 min at 300 rcf are stained with FITC-conjugated anti-lysozyme antibody (Dako, F0372) and APC-conjugated anti-CD24 antibody (Biolegend, #138505) at 100× for 45 min at RT in the dark.

[3] = Newlands et al, 1996; cited from earlier work
[4] = Roberts et al, 1986; cited from earlier work
ISCs / Paneth cells = details: Hayase et al., 2017; cited from earlier work

NC(=O)/C(=C/n1cnc(-c2cc(C(F)(F)F)cc(C(F)(F)F)c2)n1)c1cncnc1 [KPT-8602]
LYZ abundance per-mass protein (Western blot) [1]: appreciably increase LYZ abundance
secretory cell gene set scores (Paneth, goblet, EEC) from bulk transcripts (intestinal organoids): increase secretory cells (Paneth, goblet, and EEC)
Paneth cell representation / proportion in organoids [2]: statistically significant increases in Paneth cell representation; also recorded: statistically significant increases in the Paneth cell fraction; also recorded: increased the proportion of PC

CCC(=C/[C@H](C)C/C=C/C(C)=C/[C@@H](C)C(=O)[C@@H](C)[C@H](O)[C@@H](C)C/C(C)=C/C(=O)O)/C=C/[C@@H]1OC(=O)C=C[C@@H]1C [Leptomycin B]
tolerability in humans [3]: poorly tolerated with marked gastrointestinal toxicity
tolerability in animals [4]: poorly tolerated with marked gastrointestinal toxicity
LYZ abundance per-mass protein (Western blot) [1]: appreciably increase LYZ abundance
Paneth cell representation / proportion in organoids [2]: statistically significant increases in Paneth cell representation; also recorded: statistically significant increases in the Paneth cell fraction
Paneth cell representation / proportion in organoids ([2]; listed as leptomycin B): increased the proportion of PC

B1: R-spondin1: a potent WNT agonist (protein, UniProt Q2MKA7 21-263, looked up)
R-spondin-1: SRGIKGKRQRRISAEGSQACAKGCELCSEVNGCLKCSPKLFILLERNDIRQVGVCLPSCPPGYFDARNPDMNKCIKCKIEHCEACFSHNFCTKCKEGLYLHKGRCYPACPEGSSAANGTMECSSPAQCEMSEWSPWGPCSKKQQLCGFRRGSEERTRRVLHAPVGDHAACSDTKETRRCTVRRVPCPEGQKRRKGGQGRRENANRNLARKESKEAGAGSRRRKGQQQQQQQGTVGPLTSAGPA
alpha-defensin secretion and dysbiosis in mice with GvHD (ISCs / Paneth cells): elevate the secretion of alpha-defensins and resolve dysbiosis seen in mice with GvHD
